Consider one substance from US20220096650A1 (Glaxosmithkline Intellectual Property Development Limited, priority 2019, published 2022).

In one experiment the test system is NCI-H929. Put plainly: Immunogenic cell death markers (ATP, HMGB1, CRT) after 48 hour treatment. Format: cell-based, human. The source says: The process of immunogenic cell death can induce the production of danger molecules that lead to the activation of dendritic cells (see FIG. 1A—ICD is a special type of apoptosis often associated with the cellular release of ATP and HMGB1, and exposure of CRT at the cellular membrane. ICD induces an immune response through engagement of the antigen presentation process by dendritic cells (DCs)). […] Anti-BCMA-MMAF induced ATP release, HMGB1 release and CRT exposure only in NCI-H929, a BCMA positive MM cell line). To investigate the effect of NCI-H929 cell killing by BCMA ADC on the activation of dendritic cells, co-culture experiments were carried out with BCMA ADC treated NCI-H929 cells and immature dendritic cells (iDCs) differentiated from human monocytes in vitro with GM-CSF/IL-4 treatment. A number of dendritic cell maturation markers as well as IL-10 and IL-12p70, two major cytokines secreted by dendritic cells upon activation, were monitored in this process to assess the effect of BCMA ADC induced cell death on dendritic cell activation.

In experiment [1] the test system is NCI-H929 Multiple Myeloma cells. Put plainly: IL-10 in supernatants of NCI-H929 cells cultured alone. Format: cell-based, human. The following applies: 48 hours, 0.1, 1, 10 μg/mL. As for the experimental part:
Fresh, whole Human blood was obtained from three healthy donors from the Upper Providence Blood Donation Unit with syringes coated in liquid sodium heparin (Sagent 10 IU/mL final concentration). Monocytes were isolated from fresh, whole human blood using the RosetteSep Monocyte Enrichment kit (Cat. #15068) and were assessed for expression of cell surface CD14 (BD Bioscience Cat. #562698) using flow cytometry. Isolated Monocytes (1.5×10^6 cells/well) were cultured in 2 mLs of X-Vivo-15 Media supplemented with 1% autologous plasma, 50 ng/mL recombinant human GM-CSF (R&D, 215-GM-050) and 100 ng/mL recombinant human IL-4 (R&D, 204-IL-050) for 7 Days at 37° C./5% CO2. The cultures received a half media change at Day 3 or 4 while maintaining stimulation factor concentrations. NCI-H929 Multiple Myeloma cells were passaged for 2 passages from thaw at 37° C., 5% CO2, 90% humid air in RPMI-1640 supplemented with 10% FBS. Cells were plated at a density of 7.5×10^5 cells/ml in 2 mLs on 12 well plates. […]
FIG. 3C: IL-10 decreased with BCMA ADC treatment in supernatants from NCI-H929 Multiple Myeloma cells cultured alone. IL-10 was measured in Untreated (a), IgG Control (b), 0.1 (c), 1 (d), and 10 μg/mL BCMA ADC (e) treated (48 hours) NCI-H929 Multiple Myeloma cells.

For experiment [2], the system named is CD4 and CD8 T cells in PBMC. Description: PBMC T cell activation assay (anti-CD3/anti-CD28 stimulation), activation markers by flow cytometry. It counts as cell-based, human. Conditions: 24 and 72 hrs, 30, 3 and 0.3 μg/mL. The source says: T cells can be activated through the engagement of the T cell receptor (TCR) and co-stimulatory molecules expressed on the cell surface. […] Furthermore, upon activation, T cells produce cytokines such as IFNγ and IL-4. The effect of BCMA ADC on IFNγ and IL-4 productions in stimulated T cells was also studied. These experiments can provide data on the effect of BCMA ADC on T cells activation and function. In addition, proliferation of human CD4+ and CD8+ T cells upon stimulation in the presence of BCMA ADC was also evaluated. Human blood was obtained from the blood donor procurement program at GlaxoSmithKline. Peripheral blood mononuclear cells (PBMCs) were isolated from human whole blood by Ficoll density gradient centrifugation (GE Healthcare). Anti-human CD3 antibody (eBioscience, catalog #16-0037-85, clone OKT3) diluted with coating buffer (Biolegend, catalog #421701) was coated on 96 well flat-bottom plate overnight.
In this study, BCMA ADC treatment and PBMC activation occurred concurrently and the effects were monitored at 24 and 72 hrs. […] Immunofluorescence analysis was performed on a FACS CANTO II flow cytometer (BD Biosciences) and analyzed with DIVA software (BD Biosciences). Flow cytometry was used to monitor the percentage of CD4 or CD8 cells that express a given marker, and the mean fluorescence intensity (MFI) of this maker in CD4 or CD8 cells. […]
A general note: In flow cytometry, cells or beads pass a laser one at a time.

Experiment [3] is described as follows: Hallmarks of immunogenic cell death in vivo and in vitro (Example 7).

In the case of GSK2857916, the HMGB1 release result in the experiment on NCI-H929 (cellular supernatant, ELISA, only in NCI-H929) is recorded as “induced”. Also, in the experiment on NCI-H929 (cellular supernatant, luminescence, only in NCI-H929, a BCMA positive MM cell line), the ATP release entry is recorded as “induced”. Further, the CRT exposure result in the experiment with NCI-H929 (flow cytometry, only in NCI-H929) is “induced”. For the same substance, the IL-10 in supernatants entry in experiment [1] is given as “decreased”. The “effect on anti-CD3/anti-CD28 stimulated CD4 and CD8 T cell activation” value in experiment [2] was “minimal effect”. For the same substance, the “hallmarks of ICD (cell surface calreticulin and other ER stress response proteins, secretion of HMGB1)” value in experiment [3] was “induces hallmarks of ICD”.
